Test results reported in ChEMBL document CHEMBL1143710, “Synthesis, antifungal and antimicrobial activity of alkylphospholipids” (Bioorg Med Chem, 2007).
≈ marks a conversion by molar mass, not a printed value. Calls of active or inactive are those of the source. No cut-off for these calls is given here.

Columns and labels:
[1] = Toxicity assessed as haemolytic activity against human erythrocytes at 17.5 uM; format: cell-based, Erythrocyte; conditions: read-out: Activity
Escherichia coli = test: Antibacterial activity against Escherichia coli ATCC 25922 after 24 hrs; format: functional; conditions: ATCC 25922, 24 h
[2] = Toxicity assessed as haemolytic activity against human erythrocytes at 3.5 uM; format: cell-based, Erythrocyte; conditions: read-out: Activity
[3] = Toxicity assessed as haemolytic activity against human erythrocytes at 88 uM; format: cell-based, Erythrocyte; conditions: read-out: Activity
Candida albicans = test: Antifungal activity against Candida albicans ATCC 10231; format: functional
[4] = Toxicity assessed as haemolytic activity against human erythrocytes at 175 uM; format: cell-based, Erythrocyte; conditions: read-out: Activity
Staphylococcus aureus [5] = test: Antibacterial activity against Staphylococcus aureus ATCC 25923 after 24 hrs; format: functional; conditions: ATCC 25923, 24 h
Cryptococcus neoformans = test: Antifungal activity against Cryptococcus neoformans ATCC 90112; format: functional
Staphylococcus aureus [6] = test: Antibacterial activity against methicillin-resistant Staphylococcus aureus after 24 hrs; format: functional
Enterococcus = test: Antibacterial activity against vancomycin-resistant Enterococcus ATCC 51299 after 24 hrs; format: functional; conditions: ATCC 51299, 24 h
[7] = Toxicity assessed as haemolytic activity against human erythrocytes at 44 uM; format: cell-based, Erythrocyte; conditions: read-out: Activity
[8] = target: T1, Phospholipase B (Cryptococcus neoformans) (UniProt Q9P8P2); test: Inhibition of […] activity of Cryptococcus neoformans var. grubi H99 secreted PLB1 at 25 uM by radiometric assay method
T1 sequence (whole entry): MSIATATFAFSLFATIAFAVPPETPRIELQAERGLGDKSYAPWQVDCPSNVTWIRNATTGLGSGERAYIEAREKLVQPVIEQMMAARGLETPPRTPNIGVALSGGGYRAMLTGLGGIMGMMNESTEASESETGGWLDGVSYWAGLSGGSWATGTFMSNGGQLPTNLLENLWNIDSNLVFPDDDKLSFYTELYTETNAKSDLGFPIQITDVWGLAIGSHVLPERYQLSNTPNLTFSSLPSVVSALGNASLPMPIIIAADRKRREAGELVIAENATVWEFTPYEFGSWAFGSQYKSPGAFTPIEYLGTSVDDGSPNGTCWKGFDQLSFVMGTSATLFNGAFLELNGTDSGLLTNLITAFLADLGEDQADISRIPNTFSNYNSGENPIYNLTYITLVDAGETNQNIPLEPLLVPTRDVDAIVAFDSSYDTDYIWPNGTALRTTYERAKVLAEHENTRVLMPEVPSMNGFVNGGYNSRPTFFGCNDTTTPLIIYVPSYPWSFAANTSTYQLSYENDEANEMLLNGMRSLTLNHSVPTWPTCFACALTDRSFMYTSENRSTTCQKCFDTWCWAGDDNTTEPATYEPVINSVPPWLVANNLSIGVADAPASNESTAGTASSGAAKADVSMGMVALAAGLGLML

[9] = Toxicity assessed as haemolytic activity against human erythrocytes at 350 uM; format: cell-based, Erythrocyte; conditions: read-out: Activity
[10] = target: T1, Phospholipase B (Cryptococcus neoformans); test: Inhibition of […] activity of Cryptococcus neoformans var. grubi H99 secreted PLB1 at 250 uM by radiometric assay method
[11] = target: T1, Phospholipase B (Cryptococcus neoformans); test: Inhibition of lysophosphatidic acid acyltransferase activity of Cryptococcus neoformans var. grubi H99 secreted PLB1 at 250 uM by radiometric assay method
[12] = target: T1, Phospholipase B (Cryptococcus neoformans); test: Inhibition of phospholipase B activity of Cryptococcus neoformans var. grubi H99 secreted PLB1 by radiometric assay method

CCCCC(CC)CNC(=O)CCCCCOP(=O)([O-])OCC[N+](C)(C)C (stereo not given)
hemolysis at 17.5 µM [1]: 0% | MIC (Escherichia coli): > 350 µM | hemolysis at 3.5 µM [2]: 0% | hemolysis at 88 µM [3]: 0% | MIC (Candida albicans): > 350 µM | hemolysis at 175 µM [4]: 0% | MIC (Staphylococcus aureus [5]): > 350 µM | MIC (Cryptococcus neoformans): > 350 µM | MIC (Staphylococcus aureus [6]): > 350 µM | MIC (Enterococcus): > 350 µM | hemolysis at 44 µM [7]: 0%

C[C@@H]1[C@H](O)[C@@H](C)/C=C/C=C/C=C/C=C/C=C/C=C/C=C/[C@H](O[C@@H]2O[C@H](C)[C@@H](O)[C@H](N)[C@@H]2O)C[C@@H]2O[C@](O)(C[C@@H](O)C[C@@H](O)[C@H](O)CC[C@@H](O)C[C@@H](O)CC(=O)O[C@H]1C)C[C@H](O)[C@H]2C(=O)O [AMPHOTERICIN B]
MIC (Candida albicans): 0.54 µM (≈ 0.499 µg/mL) | MIC (Cryptococcus neoformans): 0.54 µM (≈ 0.499 µg/mL)

CCCCCCCCCCCCCCCCCCOP(=O)([O-])OCC[N+](C)(C)C [OCTADECYLPHOSPHONOCHOLINE]
hemolysis at 17.5 µM [1]: 0% | Activity [8]: inactive | MIC (Escherichia coli): > 350 µM | hemolysis at 3.5 µM [2]: 0% | hemolysis at 88 µM [3]: 92% | hemolysis at 350 µM [9]: 100% | Activity [10]: Active | MIC (Candida albicans): 1.4 µM (≈ 0.61 µg/mL) | hemolysis at 175 µM [4]: 100% | MIC (Staphylococcus aureus [5]): 22 µM (≈ 9.58 µg/mL) | Activity [11]: Active | MIC (Cryptococcus neoformans): 1.4 µM (≈ 0.61 µg/mL) | MIC (Staphylococcus aureus [6]): 22 µM (≈ 9.58 µg/mL) | hemolysis at 44 µM [7]: 60%

C[N+](C)(C)CCOP(=O)([O-])OCCCCCC(=O)NC12CC3CC(CC(C3)C1)C2
MIC (Candida albicans): > 350 µM | MIC (Cryptococcus neoformans): > 350 µM

CCCCCCCC/C=C\CCCCCCCCCCCCOP(=O)([O-])OCC[N+](C)(C)C [ERUFOSINE]
hemolysis at 17.5 µM [1]: 0% | MIC (Escherichia coli): > 350 µM | hemolysis at 3.5 µM [2]: 0% | hemolysis at 88 µM [3]: 15% | hemolysis at 350 µM [9]: 100% | MIC (Candida albicans): 44 µM (≈ 21.5 µg/mL) | hemolysis at 175 µM [4]: 90% | MIC (Staphylococcus aureus [5]): > 350 µM | MIC (Cryptococcus neoformans): 22 µM (≈ 10.8 µg/mL) | MIC (Staphylococcus aureus [6]): 22 µM (≈ 10.8 µg/mL) | MIC (Enterococcus): 11 µM (≈ 5.39 µg/mL) | hemolysis at 44 µM [7]: 0%

CN[C@H](CC(C)C)C(=O)N[C@H]1C(=O)N[C@@H](CC(N)=O)C(=O)N[C@H]2C(=O)N[C@H]3C(=O)N[C@H](C(=O)N[C@H](C(=O)O)c4cc(O)cc(O)c4-c4cc3ccc4O)[C@H](O)c3ccc(c(Cl)c3)Oc3cc2cc(c3O[C@@H]2O[C@H](CO)[C@@H](O)[C@H](O)[C@H]2O[C@H]2C[C@](C)(N)[C@H](O)[C@H](C)O2)Oc2ccc(cc2Cl)[C@H]1O [VANCOMYCIN]
MIC (Enterococcus): 0.7 µM (≈ 1.01 µg/mL)

CC(C)[C@H](NC(=O)CCCCCOP(=O)([O-])OCC[N+](C)(C)C)C(N)=O
hemolysis at 17.5 µM [1]: 0% | hemolysis at 3.5 µM [2]: 0% | hemolysis at 88 µM [3]: 0% | hemolysis at 350 µM [9]: 0% | MIC (Candida albicans): > 350 µM | hemolysis at 175 µM [4]: 0% | MIC (Cryptococcus neoformans): > 350 µM | hemolysis at 44 µM [7]: 0%

CCCCCCCCCCCCOP(=O)([O-])OCC[N+](C)(C)C
Activity [12]: inactive | hemolysis at 17.5 µM [1]: 0% | Activity [8]: inactive | hemolysis at 3.5 µM [2]: 0% | hemolysis at 88 µM [3]: 0% | MIC (Candida albicans): 350 µM (≈ 123 µg/mL) | hemolysis at 175 µM [4]: 0% | MIC (Cryptococcus neoformans): 175 µM (≈ 61.5 µg/mL) | hemolysis at 44 µM [7]: 0%

CCCCCCCCCCCCCCCCCCOCC(O)COP(=O)([O-])OCC[N+](C)(C)C (stereo not given)
hemolysis at 17.5 µM [1]: 0% | MIC (Escherichia coli): > 350 µM | hemolysis at 3.5 µM [2]: 0% | hemolysis at 88 µM [3]: 86% | hemolysis at 350 µM [9]: 100% | MIC (Candida albicans): > 350 µM | hemolysis at 175 µM [4]: 100% | MIC (Staphylococcus aureus [5]): 22 µM (≈ 11.2 µg/mL) | MIC (Cryptococcus neoformans): 88 µM (≈ 44.9 µg/mL) | MIC (Staphylococcus aureus [6]): 11 µM (≈ 5.61 µg/mL) | MIC (Enterococcus): 11 µM (≈ 5.61 µg/mL) | hemolysis at 44 µM [7]: 10%

CC1(C)S[C@@H]2[C@H](NC(=O)[C@H](N)c3ccc(O)cc3)C(=O)N2[C@H]1C(=O)O [AMOXICILLIN]
MIC (Escherichia coli): 22 µM (≈ 8.04 µg/mL) | MIC (Staphylococcus aureus [5]): 0.7 µM (≈ 0.256 µg/mL)

CCCCCCCCCCCCCCCCCCOCC(COP(=O)([O-])OCC[N+](C)(C)C)OC (stereo not given) [EDELFOSINE]
hemolysis at 17.5 µM [1]: 0% | MIC (Escherichia coli): > 350 µM | hemolysis at 3.5 µM [2]: 0% | hemolysis at 88 µM [3]: 83% | hemolysis at 350 µM [9]: 100% | MIC (Candida albicans): 5.5 µM (≈ 2.88 µg/mL) | hemolysis at 175 µM [4]: 100% | MIC (Staphylococcus aureus [5]): 44 µM (≈ 23 µg/mL) | MIC (Cryptococcus neoformans): > 350 µM | MIC (Staphylococcus aureus [6]): 11 µM (≈ 5.76 µg/mL) | hemolysis at 44 µM [7]: 13%

CCCCCCCCCOC(=O)CCCCCOP(=O)([O-])OCC[N+](C)(C)C
hemolysis at 17.5 µM [1]: 0% | hemolysis at 3.5 µM [2]: 0% | hemolysis at 88 µM [3]: 0% | MIC (Candida albicans): > 350 µM | hemolysis at 175 µM [4]: 0% | MIC (Cryptococcus neoformans): 175 µM (≈ 74.1 µg/mL) | hemolysis at 44 µM [7]: 0%

CCCCCCCCCCCCCCCCCC(=O)NCC(COP(=O)([O-])OCC[N+](C)(C)C)OC (stereo not given)
hemolysis at 17.5 µM [1]: 0% | MIC (Escherichia coli): > 350 µM | hemolysis at 3.5 µM [2]: 0% | hemolysis at 88 µM [3]: 56% | hemolysis at 350 µM [9]: 100% | MIC (Candida albicans): 5.5 µM (≈ 2.95 µg/mL) | hemolysis at 175 µM [4]: 100% | MIC (Staphylococcus aureus [5]): 44 µM (≈ 23.6 µg/mL) | MIC (Cryptococcus neoformans): 22 µM (≈ 11.8 µg/mL) | MIC (Staphylococcus aureus [6]): 11 µM (≈ 5.9 µg/mL) | MIC (Enterococcus): 22 µM (≈ 11.8 µg/mL) | hemolysis at 44 µM [7]: 5%

CCCCCCCCCCCCCCCCCCOP(=O)([O-])OCC[P+](C)(C)C
hemolysis at 17.5 µM [1]: 2% | Activity [8]: inactive | hemolysis at 3.5 µM [2]: 0% | hemolysis at 88 µM [3]: 97% | Activity [10]: Active | MIC (Candida albicans): 2.75 µM (≈ 1.24 µg/mL) | hemolysis at 175 µM [4]: 100% | Activity [11]: Active | MIC (Cryptococcus neoformans): 2.75 µM (≈ 1.24 µg/mL) | hemolysis at 44 µM [7]: 40%

CCCCCCCC/C=C/CCCCCCCCOP(=O)([O-])OCC[N+](C)(C)C [ELAIDYLPHOSPHOCHOLINE]
hemolysis at 17.5 µM [1]: 0% | MIC (Escherichia coli): > 350 µM | hemolysis at 3.5 µM [2]: 0% | hemolysis at 88 µM [3]: 50% | hemolysis at 350 µM [9]: 100% | MIC (Candida albicans): 2.75 µM (≈ 1.19 µg/mL) | hemolysis at 175 µM [4]: 100% | MIC (Staphylococcus aureus [5]): 22 µM (≈ 9.54 µg/mL) | MIC (Cryptococcus neoformans): 2.75 µM (≈ 1.19 µg/mL) | MIC (Staphylococcus aureus [6]): 22 µM (≈ 9.54 µg/mL) | MIC (Enterococcus): 22 µM (≈ 9.54 µg/mL) | hemolysis at 44 µM [7]: 0%
